# Measurements reported in patent US9029370B2, “Substituted benzamide derivatives” (Hoffmann-La Roche Inc., priority 2011, dated 2015).
# Structures can show the parent of a compound that is named as a salt.
# Legend:
# mouse TAAR1 = mouse TAAR1 (Mus musculus (Mouse), UniProt Q923Y8); assay: Radioligand binding assay on mouse TAAR1; conditions: for Ki: mouse TAAR1, HEK-293 membranes, first value of the pair (before the slash), read-out: Ki (μM) mouse/rat
# Summary of the method: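 Membranes from HEK293 cells stably expressing mouse TAAR1, in HEPES-NaOH pH 7.4 with 0.1 mM EDTA, were incubated 1 h at 4°C with tritiated (S)-4-[(ethyl-phenyl-amino)-methyl]-4,5-dihydro-oxazol-2-ylamine and compound (10 pM–10 μM, duplicates). Nonspecific binding defined with 10 μM unlabeled ligand; bound radioactivity by filtration and scintillation counting.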
# rat TAAR1 = rat TAAR1 (Rattus norvegicus (Rat), UniProt Q923Y9); assay: Radioligand binding assay on rat TAAR1; conditions: for Ki: rat TAAR1, HEK-293 membranes, second value of the pair (line below), read-out: Ki (μM) mouse/rat
# Summary of the method: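 Membranes from HEK293 cells stably expressing rat TAAR1 were incubated 1 hr at 4 °C with ^3[H]-(S)-4-[(ethyl-phenyl-amino)-methyl]-4,5-dihydro-oxazol-2-ylamine; nonspecific binding was defined with 10 μM unlabeled ligand. Compounds were tested at 10 pM to 10 μM in duplicate. Bound radioactivity was read by filtration and scintillation counting.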
# Chain of mouse TAAR1 (Q923Y8 whole entry): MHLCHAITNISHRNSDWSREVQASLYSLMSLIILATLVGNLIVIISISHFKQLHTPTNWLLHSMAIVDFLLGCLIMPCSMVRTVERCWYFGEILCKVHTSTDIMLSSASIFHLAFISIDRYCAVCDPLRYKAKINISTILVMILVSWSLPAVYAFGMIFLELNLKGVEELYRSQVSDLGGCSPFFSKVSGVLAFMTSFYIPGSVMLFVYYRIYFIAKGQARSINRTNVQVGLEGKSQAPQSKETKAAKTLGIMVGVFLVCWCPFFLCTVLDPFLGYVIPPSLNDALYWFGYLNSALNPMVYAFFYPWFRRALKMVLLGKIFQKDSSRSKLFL
# Chain of rat TAAR1 (Q923Y9 whole entry): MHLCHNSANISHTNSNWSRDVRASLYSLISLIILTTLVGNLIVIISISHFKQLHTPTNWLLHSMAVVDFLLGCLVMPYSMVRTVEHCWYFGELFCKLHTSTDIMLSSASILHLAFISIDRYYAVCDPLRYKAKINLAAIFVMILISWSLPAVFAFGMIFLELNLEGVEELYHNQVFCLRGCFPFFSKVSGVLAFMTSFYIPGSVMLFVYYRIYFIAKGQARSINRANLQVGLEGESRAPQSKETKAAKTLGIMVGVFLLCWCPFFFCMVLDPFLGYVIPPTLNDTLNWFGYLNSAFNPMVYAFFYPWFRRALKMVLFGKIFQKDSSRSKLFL
"Kd (mouse TAAR1; mouse TAAR1 membranes, saturation curve, usual value, read-out: dissociation constant (Kd) of the radioligand) [nM]","Kd (rat TAAR1; rat TAAR1 membranes, saturation curve, usual value, read-out: dissociation constant (Kd) of the radioligand) [nM]",SMILES,Ki (mouse TAAR1) [µM],Ki (rat TAAR1) [µM]
,,"O=C(Nc1ccc([C@H]2CNCCO2)cc1Cl)c1cnn(-c2cncc(C(F)(F)F)n2)c1 [Example 126, (S)—N-(2-Chloro-4-(morpholin-2-yl)phenyl)-1-(6-(trifluoromethyl)pyrazin-2-yl)-1H-pyrazole-4-carboxamide hydrochloride]",0.0202,0.0047
,,"O=C(Nc1ccc([C@H]2CNCCO2)c(F)c1)c1cnn(-c2cncc(C(F)(F)F)n2)c1 [Example 127, (S)—N-(3-Fluoro-4-(morpholin-2-yl)phenyl)-1-(6-(trifluoromethyl)pyrazin-2-yl)-1H-pyrazole-4-carboxamide hydrochloride]",0.007,0.0016
,,"O=C(Nc1ccc([C@H]2CNCCO2)c(Cl)c1)c1cnn(-c2cncc(C(F)(F)F)n2)c1 [Example 128, (S)—N-(3-Chloro-4-(morpholin-2-yl)phenyl)-1-(6-(trifluoromethyl)pyrazin-2-yl)-1H-pyrazole-4-carboxamide hydrochloride]",0.0088,0.0025
,,"O=C(Nc1ccc([C@H]2CNCCO2)c(F)c1)c1cnn(-c2cc(C(F)(F)F)ncn2)c1 [Example 129, (S)—N-(3-Fluoro-4-(morpholin-2-yl)phenyl)-1-(6-(trifluoromethyl)pyrimidin-4-yl)-1H-pyrazole-4-carboxamide hydrochloride]",0.0073,0.0025
,,"O=C(Nc1ccc([C@H]2CNCCO2)c(F)c1)c1cnn(-c2ccc(C(F)(F)F)nc2)c1 [Example 130, (S)—N-(3-Fluoro-4-(morpholin-2-yl)phenyl)-1-(6-(trifluoromethyl)pyridin-3-yl)-1H-pyrazole-4-carboxamide hydrochloride]",0.0075,0.0038
,,"N#Cc1cnc(-n2cc(C(=O)Nc3ccc([C@H]4CNCCO4)c(F)c3)cn2)cn1 [Example 131, (S)-1-(5-Cyanopyrazin-2-yl)-N-(3-fluoro-4-(morpholin-2-yl)phenyl)-1H-pyrazole-4-carboxamide hydrochloride]",0.0254,0.0144
,,"N#Cc1cc(Cl)cc(C(=O)Nc2ccc([C@H]3CNCCO3)c(F)c2)n1 [Example 133, (S)-4-Chloro-6-cyano-N-(3-fluoro-4-(morpholin-2-yl)phenyl)picolinamide hydrochloride]",0.0095,0.018
,,"Cc1nc(C(=O)Nc2ccc([C@H]3CNCCO3)cc2F)ccc1C#N [Example 135, (S)-5-Cyano-N-(2-fluoro-4-(morpholin-2-yl)phenyl)-6-methylpicolinamide hydrochloride]",0.0105,0.578
,,"Cc1nc(C(=O)Nc2ccc([C@H]3CNCCO3)c(F)c2)ccc1C#N [Example 136, (S)-5-Cyano-N-(3-fluoro-4-(morpholin-2-yl)phenyl)-6-methylpicolinamide hydrochloride]",0.0075,0.0585
,,"O=C(Nc1ccc([C@H]2CNCCO2)c(F)c1)c1cnc(C(F)(F)F)cn1 [Example 137, (S)—N-(3-Fluoro-4-(morpholin-2-yl)phenyl)-5-(trifluoromethyl)pyrazine-2-carboxamide hydrochloride]",0.0067,0.0301
,,"CCOc1ccc(C(=O)Nc2ccc([C@H]3CNCCO3)cc2F)cn1 [Example 138, (S)-6-Ethoxy-N-(2-fluoro-4-(morpholin-2-yl)phenyl)nicotinamide]",0.0042,0.308
~0.7,~2.3,"CCN(C[C@H]1COC(N)=N1)c1ccccc1 [^3[H]-(S)-4-[(ethyl-phenyl-amino)-methyl]-4,5-dihydro-oxazol-2-ylamine, reference compound]",,
